From publication PMC6473556, “Targetable Mechanical Properties by Switching between Self‐Sorting and Co‐assembly with In Situ Formed Tripodal Ketoenamine Supramolecular Hydrogels” (Chemnanomat, 2018)

Assays:
Assay type in all cases: physicochemical
[1] = Rheometry of the gels (time, frequency and stress sweeps); settings: gel at 40 mM gelator concentration, standard deviation in brackets; for Yield stress: rounded to nearest 10; for G′ / G′′: rounded to nearest 100
Procedure: Another observation is the difference in transparency between the gels (Figure 1). Gels R2 and R6 are noticeably more transparent than the other gels. This transparency is a result of gels R2 and R6 having narrower fibres and therefore scattering less light (Figure S59). […] The responses of the nine presented gels to mechanical stimulus were determined using rheometry (Table 1). Although differences in mechanical properties are apparent when comparing one gel to another the difference between the same gel prepared ex situ and in situ is negligible (see ESI). Once a constant value for G′ had been recording during the time sweep experiments, the gelatinous nature of the materials was confirmed using frequency sweep rheometry.
For all gels the G′ and G“ values remained constant over a frequency range of 0.1–100 Hz, with the value of G′ several times the value recorded for G” (Figure 3). To examine the gels’ non‐linear rheological behaviour stress sweep experiments were conducted. The defining point of the experiment is the yield stress, below which G′ remains essentially constant, but above which the gel begins to flow (see ESI).

[2] = Critical gel concentration, inverted vial method; settings: 0.5 ml water
Procedure: 3.3 Setting gel using the ex situ prepared compound (gels R1 to R8 inclusively):
This procedure describes the method used in a typical setting of the hydrogel at 2 wt% using the previously prepared synthesised compound.
The gel ligand (0.1 g) was suspended in water, to this suspension sodium hydroxide was added (0.05 g, 1.25 mmol). Sonication and gentle heating was used to ensure the ligand had completely dissolved giving a solution with a pH of 9 – 10. To this solution glucono delta-lactone (GdL) (0.08 g, 0.45 mmol) was added and the solution was shaken until the GdL had […]
3.4 Setting gel R9 using the ex situ prepared compound:
This procedure describes the method used in a typical setting of the hydrogel R9 at 2 wt% using the previously prepared synthesised compound R9.
The synthesised compound R9 (0.1 g, 0.21 mmol) was suspended in water (5 ml), to this suspension sodium hydroxide was added (0.05 g, 1.25 mmol). Sonication and gentle heating was used to ensure the ligand had completely dissolved giving a solution with a pH of 9 – 10.
To this solution conc. Hydrochloric acid (0.4 ml) was rapidly added instantly producing a […]
3.5 Critical gel concentration (CGC):
Critical gel concentration was determined using the inverted vial method in 2 ml sample vials using 0.5 ml of water. This method can often give lower CGC values than are determined using a rheometer due to the low volume of solution and the high surface tension within the vials.

[3] = Gelation on lowering the pH with glucono-delta-lactone; settings: in situ reaction at high pH after addition of GdL

Row | SMILES | Yield stress [1] | G′ [1] | G′′ [1] | CGC (critical gel concentration) [2] [Wt%] | Gelation [3]
1 | COc1cc(NC=C2C(=O)C(=CNc3ccc(C(=O)O)c(OC)c3)C(=O)C(=CNc3ccc(C(=O)O)c(OC)c3)C2=O)ccc1C(=O)O [R3] | 140(20) μNm | 10200(300) Pa | 2100(100) Pa | 0.5 | –
2 | Cc1cc(NC=C2C(=O)C(=CNc3ccc(C(=O)O)c(C)c3)C(=O)C(=CNc3ccc(C(=O)O)c(C)c3)C2=O)ccc1C(=O)O [R8] | 70(20) μNm | 9600(100) Pa | 2500(200) Pa | 0.5 | –
3 | O=C1C(=CNc2ccc(O)cc2)C(=O)C(=CNc2ccc(O)cc2)C(=O)C1=CNc1ccc(O)cc1 [R9] | 20(40) μNm | 1200(100) Pa | 300(300) Pa | 0.9 | –
4 | O=C1C(=CNc2cc(C(=O)O)ccc2O)C(=O)C(=CNc2cc(C(=O)O)ccc2O)C(=O)C1=CNc1cc(C(=O)O)ccc1O [R5] | 80(20) μNm | 10800(200) Pa | 3100(400) Pa | 0.4 | –
5 | O=C1C(=CNc2ccc(C(=O)O)cc2)C(=O)C(=CNc2ccc(C(=O)O)cc2)C(=O)C1=CNc1ccc(C(=O)O)cc1 [R1] | 140(10) μNm | 9000(200) Pa | 2300(100) Pa | 0.3 | –
6 | O=C1C(=CNc2ccc(Cl)c(C(=O)O)c2)C(=O)C(=CNc2ccc(Cl)c(C(=O)O)c2)C(=O)C1=CNc1ccc(Cl)c(C(=O)O)c1 [R2] | 80(20) μNm | 12700(100) Pa | 3300(200) Pa | 0.2 | –
7 | O=C1C(=CNc2ccc(C(=O)O)cc2O)C(=O)C(=CNc2ccc(C(=O)O)cc2O)C(=O)C1=CNc1ccc(C(=O)O)cc1O [R4] | 40(10) μNm | 9300(200) Pa | 2100(200) Pa | 0.4 | –
8 | COc1c(NC=C2C(=O)C(=CNc3cccc(C(=O)O)c3OC)C(=O)C(=CNc3cccc(C(=O)O)c3OC)C2=O)cccc1C(=O)O [R7] | 90(30) μNm | 8800(200) Pa | 2100(300) Pa | 0.5 | –
9 | O=C1C(=CNc2cc(C(=O)O)cc(C(F)(F)F)c2)C(=O)C(=CNc2cc(C(=O)O)cc(C(F)(F)F)c2)C(=O)C1=CNc1cc(C(=O)O)cc(C(F)(F)F)c1 [R6] | 250(30) μNm | 15400(300) Pa | 2600(200) Pa | 0.1 | –
10 | O=C(O)CCCCCNC=C1C(=O)C(=CNCCCCCC(=O)O)C(=O)C(=CNCCCCCC(=O)O)C1=O [R10] | – | – | – | – | no gelation
